Laboratory results from patent publication US4551547A, “Biocidal 2-aryl-1, 3-cyclopentanedione enol ester compounds” (Union Carbide Corporation, priority 1983, dated 1985).
In brackets after ≈: the same amount, converted by molar mass.

Experiments:
[1] = test system: Red root pigweed (Amaranthus); assay: Preliminary herbicide seed germination test (pre-emergent), red root pigweed; assay type: in vivo, Amaranthus retroflexus; design: key: 5: no seedling emerged; 4: few seedlings emerged and/or very severe stunting; 3: moderate reduction in stand and/or moderate stunting.; 2: very slight reduction in stand and/or slight stunting; 1: no injury, seedlings appear no different with respect to stand or growth than untreated controls; conditions: ten to twelve days after application
Summary of the method: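 Pre-emergent pot test in the greenhouse with Amaranthus retroflexus seed mixed into soil. About 2 h after planting, 25 mL of aqueous formulation (diluted from a 0.5% w/w acetone/surfactant stock) was applied per pot, with concentration given in ppm. Solvent/emulsifier-only pots served as controls, and effects were scored on a rating scale.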

Crabgrass = assay: Preliminary herbicide seed germination test (pre-emergent), crabgrass; assay type: in vivo, Digitaria sanguinalis; design: key: 5: no seedling emerged; 4: few seedlings emerged and/or very severe stunting; 3: moderate reduction in stand and/or moderate stunting.; 2: very slight reduction in stand and/or slight stunting; 1: no injury, seedlings appear no different with respect to stand or growth than untreated controls; conditions: ten to twelve days after application
Summary of the method: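 Crabgrass (Digitaria sanguinalis) seed-soil mixtures in pots were drenched about 2 h after planting with 25 mL of compound suspension, diluted in water from an acetone/alkylphenoxyethanol-emulsified stock. Each compound was tested at the same ppm concentration. Solvent-emulsifier blanks served as controls; effects were rated visually.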

[2] = test system: egg of the two-spotted mite; assay: Mite Ovicide Test (eggs); assay type: in vivo, Tetranychus urticae (Koch); design: key to Miticidal, Egg: A: Excellent Control; B: Partial Control; No Control; conditions: for Miticidal, Egg: Table II, unhatched eggs after four days
Summary of the method: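 Tetranychus urticae eggs laid over 48 h on bean plants (adults then killed with tetraethyl pyrophosphate) were sprayed to run-off with aqueous acetone/emulsifier suspensions at graded ppm; solvent-sprayed controls. After 4 days at 80±5 °F, 50±5% RH, hatched versus unhatched eggs counted microscopically; ppm for 50% egg kill reported.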

Mustard = assay: Preliminary herbicide seed germination test (pre-emergent), mustard; assay type: in vivo, Brassica pincea var. foliosa (Florida broadleaf); design: key: 5: no seedling emerged; 4: few seedlings emerged and/or very severe stunting; 3: moderate reduction in stand and/or moderate stunting.; 2: very slight reduction in stand and/or slight stunting; 1: no injury, seedlings appear no different with respect to stand or growth than untreated controls; conditions: ten to twelve days after application
Summary of the method: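 Stock suspension (0.5% w/w compound in acetone with alkylphenoxyethanol surfactant, emulsified in water) diluted with water to test concentration; 25 mL applied pre-emergence to greenhouse pots of mustard seed–soil mixture ~2 h after planting. Solvent/emulsifier-only controls; injury rated visually.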

Soybean = assay: Post-emergent herbicidal test, soybean; assay type: in vivo; design: key: 1: no perceptible injury; 2: intermediate degrees of injury; 3: intermediate degrees of injury; 4: intermediate degrees of injury; 5: the plant was dead; conditions: 2500 parts per million, after ten days; for Post-emergent Herbicidal, Soybean: Table II
Summary of the method: (§1)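 Compounds dispersed in acetone/surfactant/water and sprayed at 2500 ppm onto foliage of healthy plants. Plants kept in greenhouse; foliar injury scored visually after ten days on a 1 (no injury) to 5 (dead) scale.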

Corn = assay: Post-emergent herbicidal test, corn; assay type: in vivo; design: key: 1: no perceptible injury; 2: intermediate degrees of injury; 3: intermediate degrees of injury; 4: intermediate degrees of injury; 5: the plant was dead; conditions: 2500 parts per million, after ten days; for Post-emergent Herbicidal, Corn: Table II
Summary of the method: as §1

Tomato = assay: Post-emergent herbicidal test, tomato; assay type: in vivo; design: key: 1: no perceptible injury; 2: intermediate degrees of injury; 3: intermediate degrees of injury; 4: intermediate degrees of injury; 5: the plant was dead; conditions: 2500 parts per million, after ten days; for Post-emergent Herbicidal, Tomato: Table II
Summary of the method: as §1

Bean = assay: Post-emergent herbicidal test, bean; assay type: in vivo; design: key: 1: no perceptible injury; 2: intermediate degrees of injury; 3: intermediate degrees of injury; 4: intermediate degrees of injury; 5: the plant was dead; conditions: 2500 parts per million, after ten days; for Post-emergent Herbicidal, Bean: Table II
Summary of the method: as §1

SMILES	Pre-emergent Herbicidal, Amaranthus ([1]; Table II)	Pre-emergent Herbicidal, Crabgrass (Crabgrass; Table II)	Miticidal, Egg [2]	Pre-emergent Herbicidal, Mustard (Mustard; Table II)	Post-emergent Herbicidal, Soybean (Soybean)	Post-emergent Herbicidal, Corn (Corn)	Post-emergent Herbicidal, Tomato (Tomato)	Post-emergent Herbicidal, Bean (Bean)	Pre-emergent Herbicidal, Amaranthus ([1]; Table III)	Pre-emergent Herbicidal, Crabgrass (Crabgrass; Table III)	LC50 ([2]; Tetranychus urticae, Table III, ppm required for a 50 percent kill of eggs, read-out: Miticidal LD50, Egg) [µg/mL]	Pre-emergent Herbicidal, Mustard (Mustard; Table III)	Post Emergent Herbicidal, Soybean (Soybean; Table III)	Post Emergent Herbicidal, Corn (Corn; Table III)	Post Emergent Herbicidal, Tomato (Tomato; Table III)	Post Emergent Herbicidal, Bean (Bean; Table III)
CC(=O)OC1=C(c2cc(C)ccc2C)C(=O)CC1 [Compound 11]	3	1	C	3	2	2	3	2	–	–	–	–	–	–	–	–
CC(=O)OC1=C(c2cc(C)ccc2C)C(=O)C(C)C1 (stereo not drawn) [Compound 15]	3	2	B	2	2	3	2	2	–	–	–	–	–	–	–	–
CCCCCCCCCCCCCCCC(=O)OC1=C(c2ccccc2C)C(=O)C2CCCCC12 (stereo not drawn) [drawing 17]	–	–	–	–	–	–	–	–	2	3	500 (≈ 1040 µM)	3	2	2	1	1
